System: 282377-053-R-J1-PDC complex spheroid viability
Assay: Anticancer human tumor 282377-053-R-J1-PDC patient-derived colon adenocarcinoma cell line growth inhibition [POLQ]
Conditions: for IC50: curve of first compound; for viability, T/C: stronger effect = lower value
How it was run: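 Complex spheroid viability model combining PDC tumour cells with endothelial (HUVEC) and MSC stromal cells. Novobiocin, ART-558 or RP6685 were tested singly and in combination with standard and investigational anticancer drugs. Each was titrated in half-log steps from near clinical Cmax, or from 10 microM where Cmax was unknown.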

[1] = second compound 0.0316 µM, first compound 0.0316 µM
[2] = second compound 0.0316 µM, first compound 0.1 µM
[3] = second compound 0.0316 µM, first compound 0.316 µM
[4] = second compound 0.0316 µM, first compound 1 µM
[5] = second compound 0.0316 µM, first compound 3.16 µM
[6] = second compound 0.0316 µM, first compound 10 µM
[7] = second compound 0.1 µM, first compound 0.0316 µM
[8] = second compound 0.1 µM, first compound 0.1 µM
[9] = second compound 0.1 µM, first compound 0.316 µM
[10] = second compound 0.1 µM, first compound 1 µM
[11] = second compound 0.1 µM, first compound 3.16 µM
[12] = second compound 0.1 µM, first compound 10 µM
[13] = second compound 0.316 µM, first compound 0.0316 µM
[14] = second compound 0.316 µM, first compound 0.1 µM
[15] = second compound 0.316 µM, first compound 0.316 µM
[16] = second compound 0.316 µM, first compound 1 µM
[17] = second compound 0.316 µM, first compound 3.16 µM
[18] = second compound 0.316 µM, first compound 10 µM
[19] = second compound 1 µM, first compound 0.0316 µM
[20] = second compound 1 µM, first compound 0.1 µM
[21] = second compound 1 µM, first compound 0.316 µM
[22] = second compound 1 µM, first compound 1 µM
[23] = second compound 1 µM, first compound 3.16 µM
[24] = second compound 1 µM, first compound 10 µM
[25] = second compound 3.16 µM, first compound 0.0316 µM
[26] = second compound 3.16 µM, first compound 0.1 µM
[27] = second compound 3.16 µM, first compound 0.316 µM
[28] = second compound 3.16 µM, first compound 1 µM
[29] = second compound 3.16 µM, first compound 3.16 µM
[30] = second compound 3.16 µM, first compound 10 µM
[31] = second compound 10 µM, first compound 0.0316 µM
[32] = second compound 10 µM, first compound 0.1 µM
[33] = second compound 10 µM, first compound 0.316 µM
[34] = second compound 10 µM, first compound 1 µM
[35] = second compound 10 µM, first compound 3.16 µM
[36] = second compound 10 µM, first compound 10 µM
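Note: spheroids exposed to compounds for seven days.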
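Throughout, for viability, T/C: 100% = DMSO vehicle control viability.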

Structure (SMILES): C#Cc1c(F)ccc2cc(O)cc(-c3ncc4c(N5CC6CCC(C5)N6)nc(OCC56CCCN5CC(F)C6)nc4c3F)c12 (stereo not drawn) + Cc1cccc(N(C)C(=O)C2C(O)CCN2c2nc(C)cc(C(F)(F)F)c2C#N)c1
- IC50 (second compound 0.0316 µM): > 10 µM
- IC50 (second compound 0.1 µM): > 10 µM
- IC50 (second compound 0.316 µM): > 10 µM
- IC50 (second compound 1 µM): > 10 µM
- IC50 (second compound 3.16 µM): > 10 µM
- IC50 (second compound 10 µM): > 10 µM
- viability, T/C [1]: 105%
- viability, T/C [2]: 84%
- viability, T/C [3]: 77.4%
- viability, T/C [4]: 89.2%
- viability, T/C [5]: 68.6%
- viability, T/C [6]: 86.9%
- viability, T/C [7]: 84.1%
- viability, T/C [8]: 82.4%
- viability, T/C [9]: 112%
- viability, T/C [10]: 84.8%
- viability, T/C [11]: 106%
- viability, T/C [12]: 81%
- viability, T/C [13]: 91.9%
- viability, T/C [14]: 79.2%
- viability, T/C [15]: 105%
- viability, T/C [16]: 93.6%
- viability, T/C [17]: 85.2%
- viability, T/C [18]: 66.2%
- viability, T/C [19]: 104%
- viability, T/C [20]: 80.4%
- viability, T/C [21]: 86%
- viability, T/C [22]: 81.3%
- viability, T/C [23]: 86.9%
- viability, T/C [24]: 70.4%
- viability, T/C [25]: 91.9%
- viability, T/C [26]: 97.6%
- viability, T/C [27]: 73.3%
- viability, T/C [28]: 75%
- viability, T/C [29]: 77.9%
- viability, T/C [30]: 74.3%
- viability, T/C [31]: 81.7%
- viability, T/C [32]: 82.4%
- viability, T/C [33]: 82.3%
- viability, T/C [34]: 68.5%
- viability, T/C [35]: 70.6%
- viability, T/C [36]: 81%

Structure (SMILES): CC1COCCN1c1cc(C2(O)CC3CCC(C2)O3)c2cnn(-c3ccn[nH]3)c2n1 (stereo not drawn) + Cc1cccc(N(C)C(=O)C2C(O)CCN2c2nc(C)cc(C(F)(F)F)c2C#N)c1
- IC50 (second compound 0.0316 µM): 0.524 µM
- IC50 (second compound 0.1 µM): 0.3 µM
- IC50 (second compound 0.316 µM): 0.242 µM
- IC50 (second compound 1 µM): 0.489 µM
- IC50 (second compound 3.16 µM): 0.23 µM
- IC50 (second compound 10 µM): 0.302 µM
- viability, T/C [1]: 106%
- viability, T/C [2]: 74.9%
- viability, T/C [3]: 67.9%
- viability, T/C [4]: 33%
- viability, T/C [5]: 25.5%
- viability, T/C [6]: 16.7%
- viability, T/C [7]: 83.8%
- viability, T/C [8]: 83.6%
- viability, T/C [9]: 48.4%
- viability, T/C [10]: 28.1%
- viability, T/C [11]: 30.4%
- viability, T/C [12]: 21.9%
- viability, T/C [13]: 78.9%
- viability, T/C [14]: 68.3%
- viability, T/C [15]: 44.6%
- viability, T/C [16]: 27.3%
- viability, T/C [17]: 29.2%
- viability, T/C [18]: 19.8%
- viability, T/C [19]: 80.7%
- viability, T/C [20]: 79.2%
- viability, T/C [21]: 54%
- viability, T/C [22]: 37.2%
- viability, T/C [23]: 27%
- viability, T/C [24]: 13.9%
- viability, T/C [25]: 78.7%
- viability, T/C [26]: 55.2%
- viability, T/C [27]: 49%
- viability, T/C [28]: 30%
- viability, T/C [29]: 31.2%
- viability, T/C [30]: 13.6%
- viability, T/C [31]: 76%
- viability, T/C [32]: 66.1%
- viability, T/C [33]: 49.2%
- viability, T/C [34]: 30.9%
- viability, T/C [35]: 31.6%
- viability, T/C [36]: 14.4%

Structure (SMILES): O=C(Nc1ccc(O)c(NS(=O)(=O)c2ccc(F)cc2)c1)c1ccc(-c2ccccc2)cc1 + Cc1cccc(N(C)C(=O)C2C(O)CCN2c2nc(C)cc(C(F)(F)F)c2C#N)c1
- IC50 (second compound 0.0316 µM): > 10 µM
- IC50 (second compound 0.1 µM): > 10 µM
- IC50 (second compound 0.316 µM): > 10 µM
- IC50 (second compound 1 µM): > 10 µM
- IC50 (second compound 3.16 µM): > 10 µM
- IC50 (second compound 10 µM): > 10 µM
- viability, T/C [1]: 122%
- viability, T/C [2]: 119%
- viability, T/C [3]: 98.4%
- viability, T/C [4]: 102%
- viability, T/C [5]: 107%
- viability, T/C [6]: 116%
- viability, T/C [7]: 106%
- viability, T/C [8]: 117%
- viability, T/C [9]: 99.5%
- viability, T/C [10]: 108%
- viability, T/C [11]: 124%
- viability, T/C [12]: 118%
- viability, T/C [13]: 104%
- viability, T/C [14]: 107%
- viability, T/C [15]: 106%
- viability, T/C [16]: 103%
- viability, T/C [17]: 116%
- viability, T/C [18]: 120%
- viability, T/C [19]: 106%
- viability, T/C [20]: 110%
- viability, T/C [21]: 99.8%
- viability, T/C [22]: 109%
- viability, T/C [23]: 117%
- viability, T/C [24]: 119%
- viability, T/C [25]: 112%
- viability, T/C [26]: 118%
- viability, T/C [27]: 104%
- viability, T/C [28]: 108%
- viability, T/C [29]: 126%
- viability, T/C [30]: 115%
- viability, T/C [31]: 106%
- viability, T/C [32]: 105%
- viability, T/C [33]: 99.7%
- viability, T/C [34]: 97%
- viability, T/C [35]: 106%
- viability, T/C [36]: 115%

Structure (SMILES): COc1cccc2c1C(=O)c1c(O)c3c(c(O)c1C2=O)CC(O)(C(=O)CO)CC3OC1CC(N)C(O)C(C)O1 (stereo not drawn) + Nc1ccc(C#CCN(C(=O)Cc2ncc(C(F)(F)F)cc2C(F)(F)F)c2ccc(F)cc2)nn1
- IC50 (second compound 0.0316 µM): 1.96 µM
- IC50 (second compound 0.1 µM): 2.1 µM
- IC50 (second compound 0.316 µM): 2.02 µM
- IC50 (second compound 1 µM): 1.91 µM
- IC50 (second compound 3.16 µM): 1.83 µM
- IC50 (second compound 10 µM): 1.91 µM
- viability, T/C [1]: 99.2%
- viability, T/C [2]: 98.9%
- viability, T/C [3]: 123%
- viability, T/C [4]: 94.6%
- viability, T/C [5]: 17.8%
- viability, T/C [6]: 3%
- viability, T/C [7]: 107%
- viability, T/C [8]: 108%
- viability, T/C [9]: 110%
- viability, T/C [10]: 110%
- viability, T/C [11]: 17.6%
- viability, T/C [12]: 2.63%
- viability, T/C [13]: 92.8%
- viability, T/C [14]: 108%
- viability, T/C [15]: 130%
- viability, T/C [16]: 103%
- viability, T/C [17]: 15.8%
- viability, T/C [18]: 3.07%
- viability, T/C [19]: 94.2%
- viability, T/C [20]: 120%
- viability, T/C [21]: 128%
- viability, T/C [22]: 100%
- viability, T/C [23]: 10.8%
- viability, T/C [24]: 4.26%
- viability, T/C [25]: 104%
- viability, T/C [26]: 108%
- viability, T/C [27]: 123%
- viability, T/C [28]: 96%
- viability, T/C [29]: 8.6%
- viability, T/C [30]: 3.58%
- viability, T/C [31]: 119%
- viability, T/C [32]: 142%
- viability, T/C [33]: 127%
- viability, T/C [34]: 105%
- viability, T/C [35]: 6.84%
- viability, T/C [36]: 3.41%

From PubChem BioAssay AID1963852 (Molecular Pharmacology Branch, DTP, NCI, 2024)
